Assay results: PubChem BioAssay (NCI)
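All cell lines were grown in 96-well plates and treated with compound for 48 hours. TGI: total growth inhibition.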

Columns and labels:
Experiment in all cases: NCI-60 cell line screen, 48 h
M14 melanoma = test system: M14 melanoma
SK-MEL-28 melanoma = test system: SK-MEL-28 melanoma
RPMI-8226 leukemia = test system: RPMI-8226 leukemia
DU-145 prostate = test system: DU-145 prostate
T-47D breast = test system: T-47D breast
HCT-15 colon = test system: HCT-15 colon
MCF7 breast = test system: MCF7 breast
CCRF-CEM leukemia = test system: CCRF-CEM leukemia
K-562 leukemia = test system: K-562 leukemia
OVCAR-8 ovarian = test system: OVCAR-8 ovarian
SK-OV-3 ovarian = test system: SK-OV-3 ovarian
UACC-62 melanoma = test system: UACC-62 melanoma
KM12 colon = test system: KM12 colon
COLO 205 colon = test system: COLO 205 colon
HL-60(TB) leukemia = test system: HL-60(TB) leukemia
OVCAR-4 ovarian = test system: OVCAR-4 ovarian
U251 CNS = test system: U251 CNS
SK-MEL-5 melanoma = test system: SK-MEL-5 melanoma
SNB-75 CNS = test system: SNB-75 CNS
NCI-H23 lung = test system: NCI-H23 lung
NCI/ADR-RES ovarian = test system: NCI/ADR-RES ovarian
HCC-2998 colon = test system: HCC-2998 colon
SN12C renal = test system: SN12C renal
SNB-19 CNS = test system: SNB-19 CNS
HS 578T breast = test system: HS 578T breast
SF-295 CNS = test system: SF-295 CNS
CAKI-1 renal = test system: CAKI-1 renal
NCI-H522 lung = test system: NCI-H522 lung
LOX IMVI melanoma = test system: LOX IMVI melanoma
SF-268 CNS = test system: SF-268 CNS
MDA-N = test system: MDA-N
SW-620 colon = test system: SW-620 colon
NCI-H460 lung = test system: NCI-H460 lung
OVCAR-3 ovarian = test system: OVCAR-3 ovarian
UACC-257 melanoma = test system: UACC-257 melanoma
UO-31 renal = test system: UO-31 renal
TK-10 renal = test system: TK-10 renal
RXF 393 renal = test system: RXF 393 renal
HT29 colon = test system: HT29 colon
IGROV1 ovarian = test system: IGROV1 ovarian
A549 NSCLC = test system: A549 NSCLC
ACHN renal = test system: ACHN renal
HCT-116 colon = test system: HCT-116 colon
OVCAR-5 ovarian = test system: OVCAR-5 ovarian
SR leukemia = test system: SR leukemia
EKVX NSCLC = test system: EKVX NSCLC
HOP-92 NSCLC = test system: HOP-92 NSCLC
PC-3 prostate = test system: PC-3 prostate
MDA-MB-435 = test system: MDA-MB-435
SF-539 CNS = test system: SF-539 CNS
MOLT-4 leukemia = test system: MOLT-4 leukemia
MDA-MB-231 breast = test system: MDA-MB-231 breast
SK-MEL-2 melanoma = test system: SK-MEL-2 melanoma
786-0 renal = test system: 786-0 renal
NCI-H226 lung = test system: NCI-H226 lung
MALME-3M melanoma = test system: MALME-3M melanoma
HOP-62 NSCLC = test system: HOP-62 NSCLC
A498 renal = test system: A498 renal

`CCOC(=O)C(NC(=O)CC)(Nc1ccccc1OC)C(F)(F)F` (stereo not given) showed a TGI (M14 melanoma) of over 100 µM, a TGI (SK-MEL-28 melanoma) of over 100 µM and a TGI (RPMI-8226 leukemia) of over 100 µM. For the same molecule, the TGI (DU-145 prostate) was over 100 µM, the TGI (T-47D breast) was over 100 µM and the TGI (HCT-15 colon) was over 100 µM. It also gave a TGI (MCF7 breast) of over 100 µM, a TGI (CCRF-CEM leukemia) of over 100 µM and a TGI (K-562 leukemia) of over 100 µM. The TGI (OVCAR-8 ovarian) was over 100 µM, the TGI (SK-OV-3 ovarian) was over 100 µM and the TGI (UACC-62 melanoma) was over 100 µM. For the same molecule, the TGI (KM12 colon) was over 100 µM, the TGI (COLO 205 colon) was over 100 µM and the TGI (HL-60(TB) leukemia) was over 100 µM. It also gave a TGI (OVCAR-4 ovarian) of over 100 µM, a TGI (U251 CNS) of over 100 µM and a TGI (SK-MEL-5 melanoma) of over 100 µM. The TGI (SNB-75 CNS) was over 100 µM, the TGI (NCI-H23 lung) was over 100 µM and the TGI (NCI/ADR-RES ovarian) was over 100 µM. It also gave a TGI (HCC-2998 colon) of over 100 µM, a TGI (SN12C renal) of over 100 µM and a TGI (SNB-19 CNS) of over 100 µM. It also gave a TGI (HS 578T breast) of over 100 µM, a TGI (SF-295 CNS) of over 100 µM and a TGI (CAKI-1 renal) of over 100 µM. For the same molecule, the TGI (NCI-H522 lung) was over 100 µM, the TGI (LOX IMVI melanoma) was over 100 µM and the TGI (SF-268 CNS) was over 100 µM. It also gave a TGI (MDA-N) of over 100 µM, a TGI (SW-620 colon) of over 100 µM and a TGI (NCI-H460 lung) of over 100 µM. It also gave a TGI (OVCAR-3 ovarian) of over 100 µM, a TGI (UACC-257 melanoma) of over 100 µM and a TGI (UO-31 renal) of over 100 µM. The TGI (TK-10 renal) was over 100 µM, the TGI (RXF 393 renal) was over 100 µM and the TGI (HT29 colon) was over 100 µM. It also gave a TGI (IGROV1 ovarian) of over 100 µM, a TGI (A549 NSCLC) of over 100 µM and a TGI (ACHN renal) of over 100 µM. The TGI (HCT-116 colon) was over 100 µM, the TGI (OVCAR-5 ovarian) was over 100 µM and the TGI (SR leukemia) was over 100 µM. It also gave a TGI (EKVX NSCLC) of over 100 µM, a TGI (HOP-92 NSCLC) of over 100 µM and a TGI (PC-3 prostate) of over 100 µM. For the same molecule, the TGI (MDA-MB-435) was over 100 µM, the TGI (SF-539 CNS) was over 100 µM and the TGI (MOLT-4 leukemia) was over 100 µM. It also gave a TGI (MDA-MB-231 breast) of over 100 µM and a TGI (SK-MEL-2 melanoma) of over 100 µM.
In the case of `Cc1cc2c3ccccc3nc2c2cc[nH]c(C)c12`, the TGI (M14 melanoma) is reported as 3.42 µM, the TGI (SK-MEL-28 melanoma) is reported as 3.3 µM and the TGI (RPMI-8226 leukemia) is reported as 20 µM. The TGI (DU-145 prostate) was 29.8 µM, the TGI (T-47D breast) was 38.9 µM and the TGI (HCT-15 colon) was 7.59 µM. The TGI (MCF7 breast) was over 100 µM, the TGI (CCRF-CEM leukemia) was 4.77 µM and the TGI (K-562 leukemia) was 3.59 µM. The TGI (OVCAR-8 ovarian) was 31.6 µM, the TGI (SK-OV-3 ovarian) was 49.6 µM and the TGI (UACC-62 melanoma) was 27.9 µM. The TGI (KM12 colon) was over 31.6 µM, the TGI (786-0 renal) was 3.06 µM and the TGI (COLO 205 colon) was 4.31 µM. It also gave a TGI (NCI-H226 lung) of 28.2 µM, a TGI (HL-60(TB) leukemia) of 4.23 µM and a TGI (OVCAR-4 ovarian) of over 100 µM. For the same molecule, the TGI (U251 CNS) was 5.62 µM, the TGI (SK-MEL-5 melanoma) was 20.2 µM and the TGI (SNB-75 CNS) was 36.5 µM. For the same molecule, the TGI (NCI-H23 lung) was over 31.6 µM, the TGI (NCI/ADR-RES ovarian) was over 100 µM and the TGI (HCC-2998 colon) was 6.67 µM. The TGI (SN12C renal) was 18.5 µM, the TGI (SNB-19 CNS) was 48.9 µM and the TGI (HS 578T breast) was over 65.5 µM. For the same molecule, the TGI (SF-295 CNS) was over 88.5 µM, the TGI (CAKI-1 renal) was 51 µM and the TGI (NCI-H522 lung) was 4.49 µM. It also gave a TGI (LOX IMVI melanoma) of 4.89 µM, a TGI (SF-268 CNS) of 31.2 µM and a TGI (MDA-N) of 3.3 µM. It also gave a TGI (SW-620 colon) of 6.87 µM, a TGI (OVCAR-3 ovarian) of over 35.4 µM and a TGI (UACC-257 melanoma) of 46.9 µM. It also gave a TGI (UO-31 renal) of 45.1 µM, a TGI (TK-10 renal) of 37.6 µM and a TGI (HT29 colon) of over 80.6 µM. For the same molecule, the TGI (IGROV1 ovarian) was over 55.9 µM, the TGI (A549 NSCLC) was 50.8 µM and the TGI (ACHN renal) was 52.4 µM. It also gave a TGI (HCT-116 colon) of 3.57 µM, a TGI (OVCAR-5 ovarian) of 36.5 µM and a TGI (SR leukemia) of over 74.8 µM. The TGI (EKVX NSCLC) was over 70.7 µM, the TGI (HOP-92 NSCLC) was 49.9 µM and the TGI (PC-3 prostate) was over 85.5 µM. It also gave a TGI (MALME-3M melanoma) of 28.8 µM, a TGI (MDA-MB-435) of 3.45 µM and a TGI (SF-539 CNS) of 11.4 µM. The TGI (MOLT-4 leukemia) was 22.1 µM, the TGI (HOP-62 NSCLC) was over 64.7 µM and the TGI (MDA-MB-231 breast) was 17.1 µM. It also gave a TGI (SK-MEL-2 melanoma) of 23.3 µM.
In the case of `N#Cc1nc(C(O)c2ccccc2)oc1N` (stereo not given), the TGI (M14 melanoma) is reported as over 100 µM, the TGI (SK-MEL-28 melanoma) is reported as over 100 µM and the TGI (RPMI-8226 leukemia) is reported as over 100 µM. For the same molecule, the TGI (DU-145 prostate) was over 100 µM, the TGI (T-47D breast) was over 100 µM and the TGI (MCF7 breast) was over 100 µM. The TGI (CCRF-CEM leukemia) was over 100 µM, the TGI (K-562 leukemia) was over 100 µM and the TGI (OVCAR-8 ovarian) was over 100 µM. The TGI (SK-OV-3 ovarian) was over 100 µM, the TGI (UACC-62 melanoma) was over 100 µM and the TGI (KM12 colon) was over 100 µM. The TGI (786-0 renal) was over 100 µM, the TGI (COLO 205 colon) was over 100 µM and the TGI (NCI-H226 lung) was over 100 µM. It also gave a TGI (HL-60(TB) leukemia) of over 100 µM, a TGI (U251 CNS) of over 100 µM and a TGI (SK-MEL-5 melanoma) of over 100 µM. For the same molecule, the TGI (SNB-75 CNS) was over 100 µM, the TGI (NCI-H23 lung) was over 100 µM and the TGI (NCI/ADR-RES ovarian) was over 100 µM. For the same molecule, the TGI (SN12C renal) was over 100 µM, the TGI (SNB-19 CNS) was over 100 µM and the TGI (HS 578T breast) was over 100 µM. The TGI (A498 renal) was over 100 µM, the TGI (SF-295 CNS) was over 100 µM and the TGI (CAKI-1 renal) was over 100 µM. It also gave a TGI (NCI-H522 lung) of over 100 µM, a TGI (LOX IMVI melanoma) of over 100 µM and a TGI (SF-268 CNS) of over 100 µM. The TGI (MDA-N) was over 100 µM, the TGI (SW-620 colon) was over 100 µM and the TGI (OVCAR-3 ovarian) was over 100 µM. It also gave a TGI (UACC-257 melanoma) of over 100 µM, a TGI (UO-31 renal) of over 100 µM and a TGI (TK-10 renal) of over 100 µM. The TGI (RXF 393 renal) was over 100 µM, the TGI (HT29 colon) was over 100 µM and the TGI (IGROV1 ovarian) was over 100 µM. For the same molecule, the TGI (A549 NSCLC) was over 100 µM, the TGI (ACHN renal) was over 100 µM and the TGI (HCT-116 colon) was over 100 µM. For the same molecule, the TGI (OVCAR-5 ovarian) was over 100 µM, the TGI (EKVX NSCLC) was over 100 µM and the TGI (HOP-92 NSCLC) was over 100 µM. It also gave a TGI (PC-3 prostate) of over 100 µM, a TGI (MALME-3M melanoma) of over 100 µM and a TGI (SF-539 CNS) of over 100 µM. It also gave a TGI (MOLT-4 leukemia) of over 100 µM, a TGI (HOP-62 NSCLC) of over 100 µM and a TGI (MDA-MB-231 breast) of over 100 µM. It also gave a TGI (SK-MEL-2 melanoma) of over 100 µM.
